# Measurements reported in US9085550B2, “Ligands for estrogen related receptors and methods for synthesis of said ligands” (CITY OF HOPE, priority 2005, dated 2015).
# Columns and labels:
# [1] = biological target: T1, HRHN-GAL (yeast GAL4 DNA binding domain without receptor sequences) (Saccharomyces cerevisiae, UniProt P04386); assay: GAL4 reporter transactivation assay in CV-1 cells, control vector without receptor; type: cell-based, monkey; conditions: for Fold activation, HRHN-GAL: reporter 0.42:vector 0.00875, no PGC-1a
# T1 construct: expressed in transfected cells; host or cells: CV-1
# human ERα = biological target: T2, human ERα (Homo sapiens, UniProt P03372); assay: ERE-TK-luc reporter transactivation assay in CV-1 cells, full-length hERa; type: cell-based
# T2 construct: Human ERα and ERβ were examined as full-length proteins using an estrogen receptor responsive reporter construct; expressed in transfected cells; host or cells: CV-1
# T2 sequence (P03372 1-595): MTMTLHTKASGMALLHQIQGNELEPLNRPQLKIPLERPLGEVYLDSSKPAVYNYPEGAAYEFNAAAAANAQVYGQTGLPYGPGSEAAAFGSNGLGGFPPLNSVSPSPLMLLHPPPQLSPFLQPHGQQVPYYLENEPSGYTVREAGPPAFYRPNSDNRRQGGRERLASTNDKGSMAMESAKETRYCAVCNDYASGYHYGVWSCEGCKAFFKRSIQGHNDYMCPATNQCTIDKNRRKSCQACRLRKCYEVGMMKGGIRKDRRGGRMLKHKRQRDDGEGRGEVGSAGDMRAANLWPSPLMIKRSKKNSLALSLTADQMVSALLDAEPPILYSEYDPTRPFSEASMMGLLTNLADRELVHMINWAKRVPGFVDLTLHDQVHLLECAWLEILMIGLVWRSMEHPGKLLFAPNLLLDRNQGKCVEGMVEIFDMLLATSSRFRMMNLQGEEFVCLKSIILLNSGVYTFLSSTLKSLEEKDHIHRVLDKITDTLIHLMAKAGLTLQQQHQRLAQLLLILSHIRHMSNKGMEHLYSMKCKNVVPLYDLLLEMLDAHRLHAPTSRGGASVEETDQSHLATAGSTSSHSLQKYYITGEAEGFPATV
# Method: (§1) Human ERα and ERβ were examined as full-length proteins using an estrogen receptor responsive reporter construct.
# (§2) Suitable reporter gene constructs are well known to skilled workers in the fields of biochemistry and molecular biology. […] Other vectors known in the art can be used in the methods of the present invention.
# (§3) CV-1 cells for the activation assays were grown in Dulbecco's modified Eagle's medium supplemented with 10% resin charcoal-stripped fetal bovine serum, 50 U/ml penicillin G and 50 μg/ml streptomycin sulfate (DMEM-FBS) at 37° C. in 5% CO2. One day prior to transfection, cells were plated to 50-80% confluence using phenol red free DMEM-FBS.
# [2] = biological target: T3, GAL-hERRa (human ERRα ligand binding domain fused to GAL4 DNA binding domain) (Homo sapiens, UniProt P11474); assay: GAL4 reporter transactivation assay in CV-1 cells, GAL-hERRa; type: cell-based; conditions: for Fold activation, GAL-hERRa + PGC-1a / Fold activation, GAL-hERRa / Fold activation, Receptor ERRα: CV-1; for Fold activation, GAL-hERRa + PGC-1a: reporter 0.42:vector 0.00875:PGC-1a 0.035; for Fold activation, GAL-hERRa: reporter 0.42:vector 0.00875, no PGC-1a; for Fold activation, Receptor ERRα: Table 1, reporter 0.42:receptor vector 0.035:PGC-1a 0.035
# T3 construct: expressed in transfected cells; host or cells: CV-1
# T3 sequence (P11474 193-421 limits assumed): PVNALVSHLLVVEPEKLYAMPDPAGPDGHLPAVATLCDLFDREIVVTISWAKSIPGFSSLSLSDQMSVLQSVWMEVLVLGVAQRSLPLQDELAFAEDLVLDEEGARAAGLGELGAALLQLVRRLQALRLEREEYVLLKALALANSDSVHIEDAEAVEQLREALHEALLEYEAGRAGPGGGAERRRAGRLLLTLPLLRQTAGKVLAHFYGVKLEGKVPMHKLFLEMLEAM
# human ERβ = biological target: T4, human ERβ (Homo sapiens, UniProt Q92731); assay: ERE-TK-luc reporter transactivation assay in CV-1 cells, full-length hERb; type: cell-based; conditions: for Fold activation, Receptor ERRβ: Table 1 second block
# T4 construct: Human ERα and ERβ were examined as full-length proteins using an estrogen receptor responsive reporter construct; expressed in transfected cells; host or cells: CV-1
# Method: as §1, §2, §3
# [3] = biological target: T5, GAL-L-hERRb (human ERRβ ligand binding domain fused to GAL4 DNA binding domain) (Homo sapiens, UniProt O95718); assay: GAL4 reporter transactivation assay in CV-1 cells, GAL-L-hERRb; type: cell-based; conditions: for Fold activation, GAL-L-hERRb + PGC-1a / Fold activation, GAL-L-hERRb / Fold activation, Receptor ERRβ: CV-1; for Fold activation, GAL-L-hERRb + PGC-1a: reporter 0.42:vector 0.00875:PGC-1a 0.035; for Fold activation, GAL-L-hERRb: reporter 0.42:vector 0.00875, no PGC-1a; for Fold activation, Receptor ERRβ: Table 1, reporter 0.42:receptor vector 0.035:PGC-1a 0.035
# T5 construct: expressed in transfected cells; host or cells: CV-1
# T5 sequence (O95718 208-432 limits assumed): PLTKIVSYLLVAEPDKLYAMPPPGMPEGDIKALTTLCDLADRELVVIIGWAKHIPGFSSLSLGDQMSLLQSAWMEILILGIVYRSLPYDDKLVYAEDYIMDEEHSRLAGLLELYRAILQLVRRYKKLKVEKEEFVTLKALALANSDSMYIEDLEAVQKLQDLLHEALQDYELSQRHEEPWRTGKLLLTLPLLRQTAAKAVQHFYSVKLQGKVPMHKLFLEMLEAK
# T4 sequence (Q92731 whole entry): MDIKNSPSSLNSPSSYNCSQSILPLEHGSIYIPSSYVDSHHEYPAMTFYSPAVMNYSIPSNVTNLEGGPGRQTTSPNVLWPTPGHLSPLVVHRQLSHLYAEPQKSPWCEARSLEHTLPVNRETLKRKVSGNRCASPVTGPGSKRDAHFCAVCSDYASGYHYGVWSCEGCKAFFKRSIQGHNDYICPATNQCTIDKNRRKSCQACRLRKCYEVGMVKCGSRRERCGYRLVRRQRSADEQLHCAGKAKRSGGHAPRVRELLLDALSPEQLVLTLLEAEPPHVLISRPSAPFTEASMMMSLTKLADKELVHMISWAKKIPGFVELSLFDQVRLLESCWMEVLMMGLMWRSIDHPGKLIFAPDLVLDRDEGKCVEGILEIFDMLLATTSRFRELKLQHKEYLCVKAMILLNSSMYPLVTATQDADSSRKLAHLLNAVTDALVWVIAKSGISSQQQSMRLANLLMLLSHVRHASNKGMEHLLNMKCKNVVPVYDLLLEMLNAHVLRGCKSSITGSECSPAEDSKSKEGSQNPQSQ
# T1 sequence (P04386 1-147): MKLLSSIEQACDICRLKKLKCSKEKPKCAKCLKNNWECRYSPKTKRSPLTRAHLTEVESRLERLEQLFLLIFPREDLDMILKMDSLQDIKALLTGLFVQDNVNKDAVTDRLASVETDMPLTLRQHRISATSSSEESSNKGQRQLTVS
smiles,measurement,setting,value
"CCN(CC)c1ccc(C=NNC(=O)c2ccc(O)cc2)cc1 [DY131, 4-Hydroxy-benzoic acid (4-diethylamino-benzylidene)-hydrazide]","Fold activation, Receptor — (first block)","[1]; Table 1, reporter 0.42:receptor vector 0.035:PGC-1a 0.035, 3 μM",0.8 fold
same,"Fold activation, Receptor — (first block)","[1]; Table 1, reporter 0.42:receptor vector 0.035:PGC-1a 0.035, 10 μM",0.7 fold
same,"Fold activation, Receptor — (first block)","[1]; Table 1, reporter 0.42:receptor vector 0.035:PGC-1a 0.035, 30 μM",0.9 fold
same,"Fold activation, HRHN-GAL",[1]; 0.3 μM,1.03 fold
same,"Fold activation, HRHN-GAL",[1]; 1 μM,0.94 fold
same,"Fold activation, HRHN-GAL",[1]; 3 μM (first 3 μM column),0.74 fold
same,"Fold activation, HRHN-GAL",[1]; 3 μM (second 3 μM column),0.74 fold
same,"Fold activation, HRHN-GAL",[1]; 10 μM,0.77 fold
same,"Fold activation, HRHN-GAL",[1]; 30 μM,0.79 fold
same,"Fold activation, HRHN-GAL + PGC-1a","[1]; reporter 0.42:vector 0.00875:PGC-1a 0.035, 0.3 μM",1.00 fold
same,"Fold activation, HRHN-GAL + PGC-1a","[1]; reporter 0.42:vector 0.00875:PGC-1a 0.035, 1 μM",0.65 fold
same,"Fold activation, HRHN-GAL + PGC-1a","[1]; reporter 0.42:vector 0.00875:PGC-1a 0.035, 3 μM (first 3 μM column)",0.72 fold
same,"Fold activation, HRHN-GAL + PGC-1a","[1]; reporter 0.42:vector 0.00875:PGC-1a 0.035, 3 μM (second 3 μM column)",1.09 fold
same,"Fold activation, HRHN-GAL + PGC-1a","[1]; reporter 0.42:vector 0.00875:PGC-1a 0.035, 10 μM",0.69 fold
same,"Fold activation, HRHN-GAL + PGC-1a","[1]; reporter 0.42:vector 0.00875:PGC-1a 0.035, 30 μM",0.81 fold
same,Activity on ERα (activate or inhibit),human ERα; CV-1 reporter assay,failed to activate or inhibit
same,"Fold Activation, ERE-TK-luc, hERa","human ERα; Table 7, CV-1, drug conc 30 μM",0.53 fold
same,Activation of ERa,human ERα; specificity for ERRs,do not activate
same,"Fold activation, GAL-hERRa + PGC-1a",[2]; 0.3 μM,1.69 fold
same,"Fold activation, GAL-hERRa + PGC-1a",[2]; 1 μM,2.07 fold
same,"Fold activation, GAL-hERRa + PGC-1a",[2]; 3 μM (first 3 μM column),2.43 fold
same,"Fold activation, GAL-hERRa + PGC-1a",[2]; 3 μM (second 3 μM column),2.47 fold
same,"Fold activation, GAL-hERRa + PGC-1a",[2]; 10 μM,3.75 fold
same,"Fold activation, GAL-hERRa + PGC-1a",[2]; 30 μM,3.31 fold
same,"Fold activation, GAL-hERRa",[2]; 0.3 μM,1.10 fold
same,"Fold activation, GAL-hERRa",[2]; 1 μM,0.96 fold
same,"Fold activation, GAL-hERRa",[2]; 3 μM (first 3 μM column),1.55 fold
same,"Fold activation, GAL-hERRa",[2]; 3 μM (second 3 μM column),1.57 fold
same,"Fold activation, GAL-hERRa",[2]; 10 μM,1.44 fold
same,"Fold activation, GAL-hERRa",[2]; 30 μM,1.87 fold
same,"Fold activation, Receptor ERRα",[2]; 3 μM,1.5 fold
same,"Fold activation, Receptor ERRα",[2]; 10 μM,1.7 fold
same,"Fold activation, Receptor ERRα",[2]; 30 μM,1.6 fold
same,Activation of the reporter construct for ERRα,"[2]; Table 1 conditions (reporter:Gal-ERR:PGC-1a=0.4:0.035:0.035), any of the concentrations tested",failed to activate
same,Activation of the reporter construct for ERRα,"[2]; different assay conditions (reporter plasmid:Gal-ERR:PGC-1a=0.4:0.00875:0.035), Table 2",activated
same,Activation of ERRα,[2]; in the presence of PGC-1a,can activate
same,Activity on ERβ (activate or inhibit),human ERβ; CV-1 reporter assay,failed to activate or inhibit
same,"Fold activation, Receptor ERRβ","human ERβ; CV-1, 3 μM",1.1 fold
same,"Fold activation, Receptor ERRβ","human ERβ; CV-1, 10 μM",1.0 fold
same,"Fold activation, Receptor ERRβ","human ERβ; CV-1, 30 μM",1.2 fold
same,"Fold Activation, ERE-TK-luc, hERb","human ERβ; Table 7, CV-1, drug conc 30 μM",1.19 fold
same,Activation of ERb,human ERβ; specificity for ERRs,do not activate
same,"Fold activation, GAL-L-hERRb + PGC-1a",[3]; 0.3 μM,1.27 fold
same,"Fold activation, GAL-L-hERRb + PGC-1a",[3]; 1 μM,1.19 fold
same,"Fold activation, GAL-L-hERRb + PGC-1a",[3]; 3 μM (first 3 μM column),1.80 fold
same,"Fold activation, GAL-L-hERRb + PGC-1a",[3]; 3 μM (second 3 μM column),2.02 fold
same,"Fold activation, GAL-L-hERRb + PGC-1a",[3]; 10 μM,2.45 fold
same,"Fold activation, GAL-L-hERRb + PGC-1a",[3]; 30 μM,2.52 fold
same,"Fold activation, GAL-L-hERRb",[3]; 0.3 μM,0.84 fold
same,"Fold activation, GAL-L-hERRb",[3]; 1 μM,1.05 fold
same,"Fold activation, GAL-L-hERRb",[3]; 3 μM (first 3 μM column),1.26 fold
same,"Fold activation, GAL-L-hERRb",[3]; 3 μM (second 3 μM column),1.15 fold
same,"Fold activation, GAL-L-hERRb",[3]; 10 μM,2.14 fold
same,"Fold activation, GAL-L-hERRb",[3]; 30 μM,2.46 fold
same,"Fold activation, Receptor ERRβ",[3]; 3 μM,1.9 fold
same,"Fold activation, Receptor ERRβ",[3]; 10 μM,3.1 fold
same,"Fold activation, Receptor ERRβ",[3]; 30 μM,3.8 fold
same,Fold activation of ERRβ,"[3]; Table 1 conditions, concentrations of 10-30 μM",3-4 fold
same,Activation of ERRβ,[3]; in the presence of PGC-1a,can activate
